This note sets out measurements from ChEMBL document CHEMBL2321748, “Structure-Based Approach for the Discovery of Pyrrolo[3,2-d]pyrimidine-Based EGFR T790M/L858R Mutant Inhibitors” (ACS Med Chem Lett, 2013).

For experiment [1], the target named is Epidermal growth factor receptor (Homo sapiens, UniProt P00533). Nature of the experiment: Inhibition of human wild type EGFR expressed in Sf9 cells using [gamma32P]-ATP after 10 mins by scintillation counting.
The subject of experiment [2] is Epidermal growth factor receptor (Homo sapiens), P00533 [L858R,T790M]. Nature of the experiment: Time dependent inhibition of human EGFR T790M/L858R mutant expressed in Sf9 cells using [gamma32P]-ATP up to 1 hr by scintillation counting.

The source made the active and inactive calls. The rule behind the calls is not given here.

Epidermal growth factor receptor, sequence (P00533 whole entry): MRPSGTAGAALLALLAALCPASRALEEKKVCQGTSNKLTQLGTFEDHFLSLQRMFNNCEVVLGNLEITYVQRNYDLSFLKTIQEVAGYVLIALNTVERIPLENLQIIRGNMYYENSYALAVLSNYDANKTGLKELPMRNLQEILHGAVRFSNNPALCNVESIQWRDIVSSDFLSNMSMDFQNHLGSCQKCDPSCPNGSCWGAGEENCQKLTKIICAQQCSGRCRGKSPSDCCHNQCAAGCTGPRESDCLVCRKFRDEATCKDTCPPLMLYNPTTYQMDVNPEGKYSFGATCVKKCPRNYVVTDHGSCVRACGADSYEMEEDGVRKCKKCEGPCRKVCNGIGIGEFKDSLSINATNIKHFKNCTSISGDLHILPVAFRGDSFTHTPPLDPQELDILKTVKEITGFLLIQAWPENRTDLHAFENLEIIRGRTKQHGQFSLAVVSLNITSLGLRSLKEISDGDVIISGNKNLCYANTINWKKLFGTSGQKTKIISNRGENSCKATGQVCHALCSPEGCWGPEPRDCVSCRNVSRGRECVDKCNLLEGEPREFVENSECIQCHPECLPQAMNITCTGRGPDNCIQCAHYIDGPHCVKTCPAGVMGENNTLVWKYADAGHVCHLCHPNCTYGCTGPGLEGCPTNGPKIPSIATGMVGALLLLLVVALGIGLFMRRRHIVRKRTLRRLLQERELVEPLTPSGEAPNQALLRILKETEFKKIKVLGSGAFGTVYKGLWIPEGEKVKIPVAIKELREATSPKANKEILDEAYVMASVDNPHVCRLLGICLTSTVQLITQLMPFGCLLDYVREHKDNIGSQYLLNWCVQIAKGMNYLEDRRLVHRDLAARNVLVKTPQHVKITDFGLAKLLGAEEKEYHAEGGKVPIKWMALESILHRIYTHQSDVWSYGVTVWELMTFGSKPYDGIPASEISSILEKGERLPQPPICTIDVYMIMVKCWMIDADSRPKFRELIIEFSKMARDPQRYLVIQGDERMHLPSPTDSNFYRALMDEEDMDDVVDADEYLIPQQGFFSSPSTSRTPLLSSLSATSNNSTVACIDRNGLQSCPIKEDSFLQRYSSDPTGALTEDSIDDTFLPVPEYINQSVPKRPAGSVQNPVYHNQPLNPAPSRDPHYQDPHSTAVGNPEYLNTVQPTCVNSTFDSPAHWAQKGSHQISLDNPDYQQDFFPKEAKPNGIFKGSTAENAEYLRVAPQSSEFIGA
Epidermal growth factor receptor (Homo sapiens), P00533 [L858R,T790M], sequence (P00533 whole entry T790M/L858R, looked up): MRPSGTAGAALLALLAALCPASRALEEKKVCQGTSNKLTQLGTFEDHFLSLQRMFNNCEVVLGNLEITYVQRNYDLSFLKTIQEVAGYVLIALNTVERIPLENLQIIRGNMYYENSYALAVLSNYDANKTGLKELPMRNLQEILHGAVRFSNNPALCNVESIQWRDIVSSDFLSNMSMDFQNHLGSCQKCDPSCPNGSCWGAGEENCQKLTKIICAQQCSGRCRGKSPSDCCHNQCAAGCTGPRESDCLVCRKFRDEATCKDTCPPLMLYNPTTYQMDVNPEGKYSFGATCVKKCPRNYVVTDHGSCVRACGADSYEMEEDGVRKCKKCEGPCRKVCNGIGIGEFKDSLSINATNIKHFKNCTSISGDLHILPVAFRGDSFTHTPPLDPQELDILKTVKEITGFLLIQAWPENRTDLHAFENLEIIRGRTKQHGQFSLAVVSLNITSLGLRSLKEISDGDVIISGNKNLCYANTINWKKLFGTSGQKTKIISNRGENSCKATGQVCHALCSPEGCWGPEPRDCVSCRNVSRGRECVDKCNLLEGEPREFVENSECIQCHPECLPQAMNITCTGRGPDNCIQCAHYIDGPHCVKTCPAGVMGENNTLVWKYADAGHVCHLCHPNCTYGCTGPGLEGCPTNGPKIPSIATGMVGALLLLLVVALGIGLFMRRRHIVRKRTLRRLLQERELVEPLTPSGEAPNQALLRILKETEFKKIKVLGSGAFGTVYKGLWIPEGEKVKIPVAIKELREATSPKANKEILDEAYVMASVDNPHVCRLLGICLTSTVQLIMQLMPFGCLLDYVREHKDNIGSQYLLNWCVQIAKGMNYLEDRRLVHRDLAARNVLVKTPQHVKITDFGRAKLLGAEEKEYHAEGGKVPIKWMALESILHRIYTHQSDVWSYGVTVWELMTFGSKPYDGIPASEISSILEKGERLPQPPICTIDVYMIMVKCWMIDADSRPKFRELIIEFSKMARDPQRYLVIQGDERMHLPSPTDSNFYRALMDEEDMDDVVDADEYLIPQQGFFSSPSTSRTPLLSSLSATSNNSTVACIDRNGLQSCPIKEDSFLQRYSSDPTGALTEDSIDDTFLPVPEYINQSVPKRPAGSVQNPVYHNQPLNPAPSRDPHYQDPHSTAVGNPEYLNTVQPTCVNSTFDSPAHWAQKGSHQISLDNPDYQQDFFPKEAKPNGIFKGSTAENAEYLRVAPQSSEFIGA

Consider `O=C(Nc1cccc(Oc2ccc(Nc3ncnc4ccn(CCOCCO)c34)cc2Cl)c1)NC1CCCCC1`, for which half-maximal inhibition in experiment [1] (IC50) required 6.9 nM.

`CN(C)C/C=C/C(=O)NCCn1ccc2ncnc(Nc3ccc(Oc4cccc(C(F)(F)F)c4)c(Cl)c3)c21`: in experiment [1], the IC50 – broadly, the concentration that gives 50% inhibition – came out at 4.6 nM. The inhibition entry in experiment [2] is “inactive”.
